# Laboratory results from ChEMBL document CHEMBL5149970 (J Med Chem, 2021).
# Calls of active or inactive are those of the source. The calls are words filed in the database; no cut-off is given here.
# Assays:
# [1] = Elimination half life in Sprague-Dawley rat at 10 mg/kg, iv measured for 24 hrs by LC-MS/MS analysis; assay type: ADME, organism-based; conditions: in vivo
# [2] = system: EU-1; test: Inhibition of MDM2/XIAP IRES mRNA interaction in human EU-1 cells assessed as downregulation of XIAP protein expression incubated for 24 hrs by western blot analysis; assay type: cell-based; conditions: dose 0.25-2 µM, DDE = dose-dependent effect
# [3] = system: EU-1; test: Inhibition of MDM2/XIAP IRES mRNA interaction in human EU-1 cells assessed as fold change in p53 protein expression at 1 uM measured after 30 mins by CHX chase assay (reference value: 0.38); assay type: cell-based
# [4] = system: EU-1; test: Inhibition of MDM2/XIAP IRES mRNA interaction in human EU-1 cells assessed as increase in p53 protein expression at 1 uM measured after 2 to 24 hrs by western blot analysis; assay type: cell-based; conditions: time 2-24 hrs
# [5] = AUC in Sprague-Dawley rat at 25 mg/kg, po measured for 24 hrs by LC-MS/MS analysis; assay type: ADME, organism-based; design: time 24 hrs, dose 25 mg/kg, route po; conditions: in vivo
# [6] = system: EU-1; test: Inhibition of MDM2/XIAP IRES mRNA interaction in human EU-1 cells assessed as fold change in p53 protein expression at 1 uM measured after 60 mins by CHX chase assay (reference value: 0.19); assay type: cell-based
# [7] = system: EU-1; test: Inhibition of MDM2/XIAP IRES mRNA interaction in human EU-1 cells assessed as fold change in p53 protein expression at 1 uM measured after 120 mins by CHX chase assay (reference value: 0.08); assay type: cell-based
# [8] = system: EU-1; test: Inhibition of MDM2/XIAP IRES mRNA interaction in human EU-1 cells assessed as increase in p53 protein expression at 1 uM measured after 8 hrs by western blot analysis; assay type: cell-based
# [9] = Antiproliferative activity against human EU-3 cells assessed as reduction in cell survival incubated for 48 hrs by WST assay; assay type: functional, cell-based; conditions: EU-3, 48 h
# [10] = system: CFU-GM; test: Inhibition of colony formation in human CFU-GM cells assessed as reduction in colony number and size at 1 uM incubated for 14 days by crystal violet staining based analysis; assay type: toxicity, cell-based; conditions: 336 h, time 14 day
# [11] = system: SH-EP1; test: Inhibition of colony formation in human SH-EP1 cells assessed as reduction in colony number and size at 0.25 to 4 uM incubated for 2 weeks by crystal violet staining based analysis; assay type: functional, cell-based; conditions: dose 0.25-4 µM
# [12] = system: EU-1; test: Inhibition of MDM2/XIAP IRES mRNA interaction in human EU-1 cells assessed as induction of MDM2 self-ubiquitination at 1 uM measured for 90 mins by immunoprecipitation-western blot analysis; assay type: cell-based
# [13] = system: EU-1; test: Inhibition of MDM2/XIAP IRES mRNA interaction in human EU-1 cells assessed as increase in caspase-3 cleavage at 1 uM measured after 8 hrs by western blot analysis; assay type: cell-based
# [14] = AUC in Sprague-Dawley rat at 10 mg/kg, iv measured for 24 hrs by LC-MS/MS analysis; assay type: ADME, organism-based; design: dose 10 mg/kg, time 24 hrs, route iv; conditions: in vivo
# [15] = system: EU-1; test: Inhibition of MDM2/XIAP IRES mRNA interaction in human EU-1 cells assessed as induction of MDM2 degradation by measuring fold change in MDM2 protein expression at 1 uM measured after 90 mins by CHX chase assay (reference value: 0.76); assay type: cell-based
# [16] = system: EU-1; conditions: Homo sapiens, dose 1.0 µM, time 4.0 hrs
# [17] = system: EU-1; test: Inhibition of MDM2/XIAP IRES mRNA interaction in human EU-1 cells assessed as induction of MDM2 degradation by measuring downregulation of MDM2 protein expression at 1 uM measured after 2 to 24 hrs by western blot analysis; assay type: cell-based; conditions: time 2-24 hrs
# [18] = Inhibition of colony formation in human BFU-E cells assessed as reduction in colony number and size at 1 uM incubated for 14 days by crystal violet staining based analysis; assay type: toxicity, cell-based; conditions: 336 h, time 14 day
# [19] = system: EU-1; test: Inhibition of MDM2/XIAP IRES mRNA interaction in human EU-1 cells assessed as increase in p21 protein expression at 1 uM measured after 8 hrs by western blot analysis; assay type: cell-based
# [20] = system: EU-1; test: Inhibition of MDM2/XIAP IRES mRNA interaction in human EU-1 cells assessed as induction of MDM2 degradation by measuring fold change in MDM2 protein expression at 1 uM measured after 120 mins by CHX chase assay (reference value: 0.69); assay type: cell-based
# [21] = Volume of distribution in Sprague-Dawley rat at 10 mg/kg, iv measured for 24 hrs by LC-MS/MS analysis; assay type: ADME, organism-based; conditions: in vivo
# [22] = system: EU-1; test: (§1) Inhibition of MDM2/XIAP IRES mRNA interaction in human EU-1 cells assessed as inhibition of XIAP mRNA translation by measuring increase in cytoplasmic fraction containing translation-inactive complexes, mono ribosomes at 1 uM measured after 4 hrs by linear sucrose gradient fractionation based qRT-PCR analysis; assay type: subcellular; conditions: Cytoplasm
# [23] = Antiproliferative activity against human EU-1 cells assessed as inhibition of cell growth incubated for 48 hrs by WST assay; assay type: functional, cell-based; conditions: EU-1, 48 h
# [24] = Antiproliferative activity against human LA1-55n cells assessed as reduction in cell survival incubated for 48 hrs by WST assay; assay type: functional, cell-based
# [25] = system: EU-1; test: Inhibition of MDM2/XIAP IRES mRNA interaction in human EU-1 cells assessed as induction of MDM2 degradation by measuring downregulation of MDM2 protein expression incubated for 24 hrs by western blot analysis; assay type: cell-based; conditions: dose 0.25-2 µM, DDE = dose-dependent effect
# [26] = system: EU-1; conditions: Homo sapiens, dose 1.0 µM, time 4.0 hrs; remark: listed apart in the source
# [27] = system: EU-1; test: Inhibition of MDM2/XIAP IRES mRNA interaction in human EU-1 cells assessed as increase in PARP cleavage at 1 uM measured after 8 hrs by western blot analysis; assay type: cell-based
# [28] = Antiproliferative activity against human SH-EP1 cells assessed as reduction in cell survival incubated for 48 hrs by WST assay; assay type: functional, cell-based; conditions: SH-EP1, 48 h
# [29] = Antiproliferative activity against human NB-1643 cells assessed as reduction in cell survival incubated for 48 hrs by WST assay; assay type: functional, cell-based; conditions: NB-1643, 48 h
# [30] = system: EU-1; test: Inhibition of MDM2/XIAP IRES mRNA interaction in human EU-1 cells assessed as downregulation of XIAP protein expression at 1 uM measured after 2 to 24 hrs by western blot analysis; assay type: cell-based; conditions: time 2-24 hrs
# [31] = Oral bioavailability in Sprague-Dawley rat at 25 mg/kg measured for 24 hrs by LC-MS/MS analysis; assay type: ADME, organism-based; conditions: in vivo
# [32] = system: LA1-55n; test: Inhibition of colony formation in human LA1-55n cells assessed as reduction in colony number and size at 0.25 to 4 uM incubated for 2 weeks by crystal violet staining based analysis; assay type: functional, cell-based; conditions: dose 0.25-4 µM
# [33] = system: EU-1; test: Inhibition of MDM2/XIAP IRES mRNA interaction in human EU-1 cells assessed as induction of MDM2 degradation by measuring fold change in MDM2 protein expression at 1 uM measured after 30 mins by CHX chase assay (reference value: 0.92); assay type: cell-based
# [34] = system: EU-1; test: as §1, with “reduction in state of polyribosome association of XIAP mRNA” for “increase”, “lysate” for “fraction containing translation-inactive complexes, mono ribosomes”; assay type: subcellular; conditions: Cytoplasm
# [35] = system: EU-1; test: Inhibition of MDM2/XIAP IRES mRNA interaction in human EU-1 cells assessed as induction of MDM2 degradation by measuring downregulation of MDM2 protein expression at 1 uM measured after 8 hrs by western blot analysis; assay type: cell-based
# [36] = system: EU-1; test: Inhibition of MDM2/XIAP IRES mRNA interaction in human EU-1 cells assessed as induction of MDM2 degradation by measuring fold change in MDM2 protein expression at 1 uM measured after 60 mins by CHX chase assay (reference value: 0.85); assay type: cell-based
# [37] = system: EU-1; test: Inhibition of MDM2/XIAP IRES mRNA interaction in human EU-1 cells assessed as increase in p53 protein expression measured after 24 hrs by western blot analysis; assay type: cell-based; conditions: dose 0.25-2 µM, DDE = dose-dependent effect
# [38] = system: NB-1643; test: Inhibition of colony formation in human NB-1643 cells assessed as reduction in colony number and size at 0.25 to 4 uM incubated for 2 weeks by crystal violet staining based analysis; assay type: functional, cell-based; conditions: dose 0.25-4 µM
# [39] = system: EU-1; test: Inhibition of MDM2/XIAP IRES mRNA interaction in human EU-1 cells assessed as fold change in p53 protein expression at 1 uM measured after 90 mins by CHX chase assay (reference value: 0.13); assay type: cell-based
# [40] = Cmax in Sprague-Dawley rat at 10 mg/kg, iv measured for 24 hrs by LC-MS/MS analysis; assay type: ADME, organism-based; design: dose 10 mg/kg, time 24 hrs, route iv; conditions: in vivo
# [41] = system: EU-1; test: Inhibition of MDM2/XIAP IRES mRNA interaction in human EU-1 cells assessed as increase in PUMA protein expression at 1 uM measured after 8 hrs by western blot analysis; assay type: cell-based
# [42] = system: EU-1; test: Inhibition of MDM2/XIAP IRES mRNA interaction in human EU-1 cells assessed as increase in caspase-9 cleavage at 1 uM measured after 8 hrs by western blot analysis; assay type: cell-based
# [43] = Clearance in Sprague-Dawley rat at 10 mg/kg, iv measured for 24 hrs by LC-MS/MS analysis; assay type: ADME, organism-based; conditions: in vivo
smiles,measurement,setting,value
Cc1ccc(NS(=O)(=O)c2ccc3c(c2)C2OCCC2C(c2ccc(C(=O)C(C)C)cc2)N3)cc1C (stereo not drawn),beta t1/2,[1],56.4 min
same,inhibition,[2],Dde
same,fold change (FC),[3],1.06
same,inhibition,[4],Active
same,AUC,[5],0.71 µg·h/mL
same,fold change (FC),[6],1.09
same,fold change (FC),[7],1.14
same,inhibition,[8],Active
same,IC50,[9],300 nM
same,Activity,[10],Non-Toxic
same,inhibition,[11],Active
same,inhibition,[12],Active
same,inhibition,[13],Active
same,AUC,[14],4.75 µg·h/mL
same,fold change (FC),[15],0.25
same,T1/2,[16],> 2 h
same,inhibition,[17],Active
same,Activity,[18],Non-Toxic
same,inhibition,[19],Active
same,fold change (FC),[20],0.13
same,Vd,[21],2.88 L/kg
same,inhibition,[22],Active
same,IC50,[23],300 nM
same,IC50,[24],500 nM
same,inhibition,[25],Dde
same,T1/2,[26],< 1 h
same,inhibition,[27],Active
same,IC50,[28],500 nM
same,IC50,[29],500 nM
same,inhibition,[30],Active
same,F,[31],5.9%
same,inhibition,[32],Active
same,fold change (FC),[33],0.78
same,inhibition,[34],Active
same,inhibition,[35],Active
same,fold change (FC),[36],0.47
same,inhibition,[37],Dde
same,inhibition,[38],Active
same,fold change (FC),[39],1.15
same,Cmax,[40],8200 ng/mL
same,inhibition,[41],Active
same,inhibition,[42],Active
same,CL,[43],2.12 L/h/kg
